Measurements reported in the Kinase Knowledgebase extract (Sharma et al. 2016).

What was measured:
[1] = target: EGFR (UniProt P00533)
[2] = target: EGFR (Balb/c mice) (UniProt P00533); conditions: balb/c3t3
[3] = target: EGFR (Balb/c mice) (UniProt P00533); conditions: balb/mk cells

Sequence of EGFR (P00533 whole entry, looked up): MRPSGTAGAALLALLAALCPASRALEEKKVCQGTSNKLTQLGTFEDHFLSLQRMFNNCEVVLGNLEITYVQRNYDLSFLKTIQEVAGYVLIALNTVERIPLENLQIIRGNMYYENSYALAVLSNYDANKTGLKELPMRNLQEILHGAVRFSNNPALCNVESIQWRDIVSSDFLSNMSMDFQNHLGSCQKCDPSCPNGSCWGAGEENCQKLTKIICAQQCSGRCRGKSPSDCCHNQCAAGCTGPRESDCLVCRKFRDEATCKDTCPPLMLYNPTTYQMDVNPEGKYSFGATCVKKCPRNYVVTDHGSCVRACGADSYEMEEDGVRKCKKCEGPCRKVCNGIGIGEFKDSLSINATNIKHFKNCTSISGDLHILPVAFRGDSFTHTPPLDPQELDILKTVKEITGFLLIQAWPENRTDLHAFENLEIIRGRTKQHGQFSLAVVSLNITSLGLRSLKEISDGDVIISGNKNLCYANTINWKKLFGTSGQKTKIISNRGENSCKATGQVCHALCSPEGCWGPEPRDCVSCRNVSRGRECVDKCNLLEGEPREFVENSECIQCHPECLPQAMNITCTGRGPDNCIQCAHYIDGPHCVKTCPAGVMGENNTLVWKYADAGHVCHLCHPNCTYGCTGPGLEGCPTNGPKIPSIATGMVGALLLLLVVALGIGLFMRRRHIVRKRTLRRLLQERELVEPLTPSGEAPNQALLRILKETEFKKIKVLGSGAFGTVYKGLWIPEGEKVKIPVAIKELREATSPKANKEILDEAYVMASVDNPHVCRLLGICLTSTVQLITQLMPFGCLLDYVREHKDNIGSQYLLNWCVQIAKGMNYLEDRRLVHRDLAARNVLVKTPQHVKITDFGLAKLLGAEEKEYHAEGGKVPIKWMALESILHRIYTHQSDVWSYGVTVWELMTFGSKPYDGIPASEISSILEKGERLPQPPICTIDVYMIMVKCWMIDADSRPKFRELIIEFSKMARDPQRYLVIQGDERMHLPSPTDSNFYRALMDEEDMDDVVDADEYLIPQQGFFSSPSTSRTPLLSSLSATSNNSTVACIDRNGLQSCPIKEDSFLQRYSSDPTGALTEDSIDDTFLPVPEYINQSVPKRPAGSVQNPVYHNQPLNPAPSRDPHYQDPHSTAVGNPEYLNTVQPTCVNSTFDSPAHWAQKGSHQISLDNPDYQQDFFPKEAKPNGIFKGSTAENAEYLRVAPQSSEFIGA

| Compound | IC50 [1] [nM] | IC50 [2] [nM] | IC50 [3] [nM] |
| --- | --- | --- | --- |
| CC(C)COC(=O)Nc1ccc(-c2cc3c(Nc4cccc(Cl)c4)ncnc3[nH]2)cc1 | 0.5 to 1000 | 1 to 100 | 100 to 1000 |
| COc1cc(-c2cc3c(Nc4cccc(Cl)c4)ncnc3[nH]2)ccc1OCc1ccccc1 | 0.5 to 1000 | 1 to 100 | 100 to 1000 |
| CCS(=O)(=O)Nc1cccc(-c2cc3c(Nc4cccc(Cl)c4)ncnc3[nH]2)c1 | 0.5 to 1000 | 1 to 100 | 100 to 1000 |
| CCS(=O)(=O)Nc1ccc(-c2cc3c(N[C@H](C)c4ccccc4)ncnc3[nH]2)cc1 | 0.5 to 1000 | 1 to 100 | 100 to 1000 |
| CC(C)S(=O)(=O)Nc1ccc(-c2cc3c(Nc4cccc(Cl)c4)ncnc3[nH]2)cc1 | 0.5 to 1000 | 1 to 100 | 100 to 1000 |
| CC(C)S(=O)(=O)Nc1ccc(-c2cc3c(N[C@H](C)c4ccccc4)ncnc3[nH]2)cc1 | 0.5 to 1000 | 1 to 100 | 100 to 1000 |
| Clc1cccc(Nc2ncnc3[nH]c(-c4nccs4)cc23)c1 | 0.5 to 1000 | 1 to 100 | 100 to 1000 |
| COc1cc(-c2cc3c(Nc4ccccc4)ncnc3[nH]2)ccc1O | 0.5 to 1000 | 1 to 100 | 100 to 1000 |
| Clc1cccc(Nc2ncnc3[nH]c(-c4cccc(N=CN5CCOCC5)c4)cc23)c1 | 0.5 to 1000 | 1 to 100 | 100 to 1000 |
| CS(=O)(=O)Nc1ccc(-c2cc3c(Nc4cccc(Cl)c4)ncnc3[nH]2)cc1 | 0.5 to 1000 | 1 to 100 | 100 to 1000 |
| COc1ccc(CNCc2cc3c(Nc4cccc(Cl)c4)ncnc3[nH]2)cc1 | 0.5 to 1000 | 1 to 100 | 100 to 1000 |
| CN(C)C=Nc1cccc(-c2cc3c(Nc4cccc(Cl)c4)ncnc3[nH]2)c1 | 0.5 to 1000 | 1 to 100 | 100 to 1000 |
| OCCN(CCO)Cc1cc2c(Nc3cccc(Cl)c3)ncnc2[nH]1 | 0.5 to 1000 | 1 to 100 | 100 to 1000 |
| C[C@@H](Nc1ncnc2[nH]c(-c3cccc(N=CN(C)C)c3)cc12)c1ccccc1 | 0.5 to 1000 | 1 to 100 | 100 to 1000 |
| C[C@@H](Nc1ncnc2[nH]c(-c3ccc(NS(C)(=O)=O)cc3)cc12)c1ccccc1 | 0.5 to 1000 | 1 to 100 | 100 to 1000 |
| CNC(=S)Nc1cccc(-c2cc3c(N[C@H](C)c4ccccc4)ncnc3[nH]2)c1 | 0.5 to 1000 | 1 to 100 | 100 to 1000 |
| CC(C)C(=Nc1ccc(-c2cc3c(Nc4cccc(Cl)c4)ncnc3[nH]2)cc1)N(C)C | 0.5 to 1000 | 1 to 100 | 100 to 1000 |

| Compound | IC50 [1] [nM] | IC50 [2] [nM] | IC50 [3] [nM] |
| --- | --- | --- | --- |
| CCNC(=O)Nc1cccc(-c2cc3c(N[C@H](C)c4ccccc4)ncnc3[nH]2)c1 | 0.5 to 1000 | 1 to 100 | 100 to 1000 |
| NC(=S)c1cc2c(Nc3cccc(Cl)c3)ncnc2[nH]1 | 0.5 to 1000 | 1 to 100 | 100 to 1000 |
| CCNC(=O)Nc1cccc(-c2cc3c(Nc4cccc(Cl)c4)ncnc3[nH]2)c1 | 0.5 to 1000 | 1 to 100 | 100 to 1000 |
| Clc1cccc(Nc2ncnc3[nH]c(-c4ccc(N=CN5CCOCC5)cc4)cc23)c1 | 0.5 to 1000 | 1 to 100 | 100 to 1000 |
| CCNC(=O)Nc1ccc(-c2cc3c(Nc4cccc(Cl)c4)ncnc3[nH]2)cc1 | 0.5 to 1000 | 1 to 100 | 100 to 1000 |
| CNC(=S)Nc1cccc(-c2cc3c(Nc4cccc(Cl)c4)ncnc3[nH]2)c1 | 0.5 to 1000 | 1 to 100 | 100 to 1000 |
| COc1ccc(-c2cc3c(N[C@H](C)c4ccccc4)ncnc3[nH]2)cc1 | 0.5 to 1000 | 1 to 100 | 100 to 1000 |
| CC(C)S(=O)(=O)Nc1cccc(-c2cc3c(N[C@H](C)c4ccccc4)ncnc3[nH]2)c1 | 0.5 to 1000 | 1 to 100 | 100 to 1000 |
| C[C@@H](Nc1ncnc2[nH]c(-c3cccc(NS(C)(=O)=O)c3)cc12)c1ccccc1 | 0.5 to 1000 | 1 to 100 | 100 to 1000 |
| CCNC(=S)Nc1ccc(-c2cc3c(Nc4cccc(Cl)c4)ncnc3[nH]2)cc1 | 0.5 to 1000 | 1 to 100 | 100 to 1000 |
| O=C(Nc1ccc(-c2cc3c(Nc4cccc(Cl)c4)ncnc3[nH]2)cc1)c1cccs1 | 0.5 to 1000 | 1 to 100 | 100 to 1000 |
| CN1CCN(C=Nc2ccc(-c3cc4c(Nc5cccc(Cl)c5)ncnc4[nH]3)cc2)CC1 | 0.5 to 1000 | 1 to 100 | 100 to 1000 |
| CCN(C=Nc1ccc(-c2cc3c(Nc4cccc(Cl)c4)ncnc3[nH]2)cc1)CC | 0.5 to 1000 | 1 to 100 | 100 to 1000 |
| CCc1csc(-c2cc3c(Nc4cccc(Cl)c4)ncnc3[nH]2)n1 | 0.5 to 1000 | 1 to 100 | 100 to 1000 |
| CS(=O)(=O)Nc1cccc(-c2cc3c(Nc4cccc(Cl)c4)ncnc3[nH]2)c1 | 0.5 to 1000 | 1 to 100 | 100 to 1000 |
| C[C@@H](Nc1ncnc2[nH]c(-c3cccc(NCc4ccccc4)c3)cc12)c1ccccc1 | 0.5 to 1000 | 1 to 100 | 100 to 1000 |
